Assay results: US20160115189A1, “PARASITICIDAL COMPOUNDS, METHODS, AND FORMULATIONS” (ELI LILLY AND COMPANY, priority 2013, published 2016)

Experiments:
[1] = system: Dermacentor variabilis (American dog tick); assay: Assay 4: adult American dog tick infestations on dogs, descending doses; format: in vivo, Dermacentor variabilis on beagle dogs
Method: (§1) The total number of live parasites present on each dog is determined for each interval, and this number is transformed using the natural logarithm transformation plus one (Ln count+1); addition of one to each count served to adjust for counts that are zero. Geometric mean (GM) group tick and flea counts are obtained via back-transformation of group mean transformed counts and subtracting one. The negative control group is used for comparison to treated groups for the calculation of percent efficacy (% reduction in live parasite counts). GM percent efficacy of treatments is calculated using the following formula: […]
(§2) The therapeutic (knockdown) and residual efficacy of the Example 1 compound, administered via topical spot-on at descending point doses of 30, 20 and 10 mg/kg, is evaluated against adult tick (Dermacentor variabilis (American dog tick) and Rhipicephalus sanguineus (Brown dog tick)) infestations on dogs. Twenty-four (24) beagle dogs are allocated to either an untreated, negative control group or one of three treated groups (n=6 dogs per group). Dogs are infested with approximately 50 unfed, adult R. sanguineus ticks on Days −1, 5, 12, 19 and 28; dogs are concurrently infested with D. variabilis ticks on Day 12 and Day 28. On Day 0, dogs are treated with the Example 1 compound (50 mg/ml of technical active dissolved in a vehicle solution of propylene carbonate, benzyl alcohol, and isopropyl myristate), applied via topical spot-on in a volume so as to achieve point doses of 30, 20 and 10 mg/kg. Tick counts and classification are conducted on Days 3, 7, 14, 21 and 30. GM percent efficacy of treatments against both tick species is calculated using the formula in Assay 3.

[2] = Assay 4: tolerability in dogs; format: in vivo, beagle dogs; conditions: topical spot-on 30, 20 and 10 mg/kg
[3] = system: Rhipicephalus sanguineus (Brown dog tick); assay: Assay 4: adult brown dog tick infestations on dogs, descending doses; format: in vivo, Rhipicephalus sanguineus on beagle dogs
Method: as §1, §2

[4] = system: adult brown dog tick (Rhipicephalus sanguineus); assay: Assay 3: adult brown dog tick infestations on dogs; format: in vivo, Rhipicephalus sanguineus on beagle dogs; conditions: for % Efficacy (GM) / Geometric Mean Group Live Parasite Counts: topical spot-on 30 mg/kg
Method: (§3) The therapeutic (knockdown) and residual efficacy of the Example 1 compound, administered topically at a point dose of 30 mg/kg bodyweight, is evaluated against adult brown dog tick (Rhipicephalus sanguineus) and cat flea (Ctenocephalides felis) infestations on dogs. Based on pre-treatment tick retention rates, eight (8) beagle dogs are allocated to one of two treatment groups (n=4 per group): Untreated control group, and Example 1 compound-treated group. Dogs are infested with approximately 50 unfed, adult ticks one day prior to treatment (approximately 50% male and 50% female ticks). On Day 0, dogs are treated with Example 1 compound (50 mg/ml, dissolved in a vehicle solution of propylene carbonate, benzyl alcohol, and isopropyl myristate), applied via topical spot-on to achieve a point dose of 30 mg/kg. On Day 3 (approximately 72 hours after treatment), ticks are counted and removed from all dogs. To evaluate residual activity, dogs are re-infested with ticks on an approximate weekly basis for at least two weeks and up to 4 weeks, with tick counts (and removal) conducted 48 hours after each infestation. Dogs are infested with approximately 100 unfed, adult fleas at weeks 2 and 3 for both groups, concurrently with tick infestation.
as §1

[5] = system: cat flea (Ctenocephalides felis); assay: Assay 3: cat flea infestations on dogs; format: in vivo, Ctenocephalides felis on beagle dogs; conditions: for % Efficacy (GM) / Geometric Mean Group Live Parasite Counts: topical spot-on 30 mg/kg
Method: as §3, §1

[6] = system: adult brown tick (Rhipicephalus sanguineus); assay: Assay 5: adult brown tick infestations on dogs; format: in vivo, Rhipicephalus sanguineus on beagle dogs; conditions: 10 mg/kg topical spot-on
Method: as §1
The therapeutic (knockdown) and residual efficacy of the Example 1-4 compounds, when administered via topical spot-on at 10 mg/kg, is evaluated against adult brown tick (Rhipicephalus sanguine us) infestations on dogs. Twenty (20) beagle dogs are allocated to either an untreated, negative control group or one of four treated groups (n=4 dogs per group). Dogs are infested with approximately 50 unfed, adult R. sanguineus ticks on Days −1, 5, 12, 19 and 28. On Day 0, dogs are treated with Example 1-4 compound formulations (each, 50 mg/ml of technical active dissolved in a vehicle solution of propylene carbonate, benzyl alcohol, and isopropyl myristate), applied via topical spot-on in a volume so as to achieve a point dose of 10 mg/kg. Tick counts and classification are conducted on Days 2, 7, 14, 21 and 30. GM percent efficacy of treatments against ticks is calculated using the formula in Assay 3.

[7] = Assay 3: tolerability in dogs; format: in vivo, beagle dogs; conditions: topical spot-on 30 mg/kg
[8] = 10 mg/kg topical spot-on, Day 14, Dv
[9] = 10 mg/kg topical spot-on, Day 30, Dv
[10] = 20 mg/kg topical spot-on, Day 14, Dv
[11] = 20 mg/kg topical spot-on, Day 30, Dv
[12] = 30 mg/kg topical spot-on, Day 14, Dv
[13] = 30 mg/kg topical spot-on, Day 30, Dv
[14] = 10 mg/kg topical spot-on, Day 3, Rs
[15] = 10 mg/kg topical spot-on, Day 7, Rs
[16] = 10 mg/kg topical spot-on, Day 14, Rs
[17] = 10 mg/kg topical spot-on, Day 21, Rs
[18] = 10 mg/kg topical spot-on, Day 30, Rs
[19] = 20 mg/kg topical spot-on, Day 3, Rs
[20] = 20 mg/kg topical spot-on, Day 7, Rs
[21] = 20 mg/kg topical spot-on, Day 14, Rs
[22] = 20 mg/kg topical spot-on, Day 21, Rs
[23] = 20 mg/kg topical spot-on, Day 30, Rs
[24] = 30 mg/kg topical spot-on, Day 3, Rs
[25] = 30 mg/kg topical spot-on, Day 7, Rs
[26] = 30 mg/kg topical spot-on, Day 14, Rs
[27] = 30 mg/kg topical spot-on, Day 21, Rs
[28] = 30 mg/kg topical spot-on, Day 30, Rs
[29] = topical 30 mg/kg, through week 4

## CC[C@H]1CCC[C@H](NC(=O)c2ccco2)[C@@H](C)C(=O)C2=C[C@@H]3[C@@H](C=C[C@@H]4C[C@@H](O[C@@H]5O[C@@H](C)[C@H](OC)C(OC)[C@H]5OC)C[C@@H]34)[C@@H]2CC(=O)O1 (stereo partly drawn) [Example 1, N-((2R,3aS,5aR,5bS,9S,13S,14R,16aS,16bR)-9-ethyl-14-methyl-7,15-dioxo-2-(((2R,3R,5S,6S)-3,4,5-trimethoxy-6-methyltetrahydro-2H-pyran-2-yl)oxy)-2,3,3a,5a,5 b,6,7,9,10,11,12,13,14,15,16a,16b-hexadecahydro-1H-as-indaceno[3,2-d][1]oxacyclododecin-13-yl)furan-2-carboxamide]
[1]; [8]
  % Efficacy (GM): (99.49) %
  Geometric Mean Group Live Tick Counts: 0.12
[1]; [9]
  % Efficacy (GM): (95.30) %
  Geometric Mean Group Live Tick Counts: 1.60
[1]; [10]
  % Efficacy (GM): (97.87) %
  Geometric Mean Group Live Tick Counts: 0.51
[1]; [11]
  % Efficacy (GM): (97.34) %
  Geometric Mean Group Live Tick Counts: 0.91
[1]; [12]
  % Efficacy (GM): (98.06) %
  Geometric Mean Group Live Tick Counts: 0.47
[1]; [13]
  % Efficacy (GM): (97.95) %
  Geometric Mean Group Live Tick Counts: 0.70
[1]; all doses, both Day 14 and Day 30 intervals
  Residual efficacy against D. variabilis ticks: > 95%
[2]
  tolerability of treatment: well tolerated
[3]; [14]
  % Efficacy (GM): (73.39) %
  Geometric Mean Group Live Tick Counts: 4.92
[3]; [15]
  % Efficacy (GM): (100) %
  Geometric Mean Group Live Tick Counts: 0.00
[3]; [16]
  % Efficacy (GM): (97.59) %
  Geometric Mean Group Live Tick Counts: 0.70
[3]; [17]
  % Efficacy (GM): (96.14) %
  Geometric Mean Group Live Tick Counts: 0.70
[3]; [18]
  % Efficacy (GM): (90.64) %
  Geometric Mean Group Live Tick Counts: 1.18
[3]; [19]
  % Efficacy (GM): (84.80) %
  Geometric Mean Group Live Tick Counts: 2.81
[3]; [20]
  % Efficacy (GM): (100) %
  Geometric Mean Group Live Tick Counts: 0.00
[3]; [21]
  % Efficacy (GM): (99.58) %
  Geometric Mean Group Live Tick Counts: 0.12
[3]; [22]
  % Efficacy (GM): (99.32) %
  Geometric Mean Group Live Tick Counts: 0.12
[3]; [23]
  % Efficacy (GM): (94.12) %
  Geometric Mean Group Live Tick Counts: 0.74
[3]; [24]
  % Efficacy (GM): (79.13) %
  Geometric Mean Group Live Tick Counts: 3.86
[3]; [25]
  % Efficacy (GM): (98.92) %
  Geometric Mean Group Live Tick Counts: 0.12
[3]; [26]
  % Efficacy (GM): (99.10) %
  Geometric Mean Group Live Tick Counts: 0.26
[3]; [27]
  % Efficacy (GM): (97.55) %
  Geometric Mean Group Live Tick Counts: 0.44
[3]; [28]
  % Efficacy (GM): (95.94) %
  Geometric Mean Group Live Tick Counts: 0.51
[3]; Day 3, treatments 30, 20 and 10 mg/kg
  Therapeutic (knockdown) efficacy: 73-85%
[3]; through Day 21, all treatments (30, 20, 10 mg/kg)
  Residual efficacy against R. sanguineus: > 95%
[3]; through Day 30, 30 mg/kg dose
  Residual efficacy against R. sanguineus: > 95%
[4]; [29]
  residual efficacy against ticks: > 90%
[4]; Day 3, Tick
  % Efficacy (GM): (87.42) %
  Geometric Mean Group Live Parasite Counts: 3.95
[4]; Week 1, Tick
  % Efficacy (GM): (99.44) %
  Geometric Mean Group Live Parasite Counts: 0.19
[4]; Week 2, Tick
  % Efficacy (GM): (100) %
  Geometric Mean Group Live Parasite Counts: 0.00
[4]; Week 3, Tick
  % Efficacy (GM): (100) %
  Geometric Mean Group Live Parasite Counts: 0.00
[4]; Week 4, Tick
  % Efficacy (GM): (100) %
  Geometric Mean Group Live Parasite Counts: 0.00
[5]; [29]
  residual efficacy against fleas: > 90%
[5]; Week 2, Flea
  % Efficacy (GM): (91.73) %
  Geometric Mean Group Live Parasite Counts: 7.15
[5]; Week 3, Flea
  % Efficacy (GM): (91.64) %
  Geometric Mean Group Live Parasite Counts: 7.21
[6]; Day 2, R. sanguineus
  GM percent efficacy: (68.16)
  Geometric Mean Group Live Tick Counts: 10.03
[6]; Day 7, R. sanguineus
  GM percent efficacy: (100)
  Geometric Mean Group Live Tick Counts: 0.00
[6]; Day 14, R. sanguineus
  GM percent efficacy: (97.41)
  Geometric Mean Group Live Tick Counts: 0.57
[6]; Day 21, R. sanguineus
  GM percent efficacy: (95.27)
  Geometric Mean Group Live Tick Counts: 1.59
[6]; Day 30, R. sanguineus
  GM percent efficacy: (67.97)
  Geometric Mean Group Live Tick Counts: 8.40
[7]
  tolerability of treatment: well tolerated
